Measurements from ChEMBL document CHEMBL1909046, “DrugMatrix in vitro pharmacology data”.

What was measured:
[1] = biological target: T1, C-C chemokine receptor type 4 (Homo sapiens, UniProt P51679); assay type: cell membranes, Chem-1, Membrane
T1 sequence (P51679 whole entry): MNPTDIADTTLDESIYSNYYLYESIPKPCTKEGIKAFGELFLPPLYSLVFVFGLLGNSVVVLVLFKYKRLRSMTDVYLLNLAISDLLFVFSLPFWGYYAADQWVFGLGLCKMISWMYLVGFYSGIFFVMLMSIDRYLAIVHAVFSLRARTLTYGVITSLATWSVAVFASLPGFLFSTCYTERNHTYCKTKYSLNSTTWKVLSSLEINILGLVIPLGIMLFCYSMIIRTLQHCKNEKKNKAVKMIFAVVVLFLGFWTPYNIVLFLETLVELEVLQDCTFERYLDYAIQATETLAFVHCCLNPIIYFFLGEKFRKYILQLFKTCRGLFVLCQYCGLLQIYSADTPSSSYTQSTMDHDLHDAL

[2] = biological target: T2, Angiotensin-converting enzyme (Oryctolagus cuniculus, UniProt P12822); assay type: tissue-based, Lung;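 also: enzymatic inhibition of angiotensin-converting enzyme measured with FAPGG as the substrate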
T2 sequence (P12822 whole entry): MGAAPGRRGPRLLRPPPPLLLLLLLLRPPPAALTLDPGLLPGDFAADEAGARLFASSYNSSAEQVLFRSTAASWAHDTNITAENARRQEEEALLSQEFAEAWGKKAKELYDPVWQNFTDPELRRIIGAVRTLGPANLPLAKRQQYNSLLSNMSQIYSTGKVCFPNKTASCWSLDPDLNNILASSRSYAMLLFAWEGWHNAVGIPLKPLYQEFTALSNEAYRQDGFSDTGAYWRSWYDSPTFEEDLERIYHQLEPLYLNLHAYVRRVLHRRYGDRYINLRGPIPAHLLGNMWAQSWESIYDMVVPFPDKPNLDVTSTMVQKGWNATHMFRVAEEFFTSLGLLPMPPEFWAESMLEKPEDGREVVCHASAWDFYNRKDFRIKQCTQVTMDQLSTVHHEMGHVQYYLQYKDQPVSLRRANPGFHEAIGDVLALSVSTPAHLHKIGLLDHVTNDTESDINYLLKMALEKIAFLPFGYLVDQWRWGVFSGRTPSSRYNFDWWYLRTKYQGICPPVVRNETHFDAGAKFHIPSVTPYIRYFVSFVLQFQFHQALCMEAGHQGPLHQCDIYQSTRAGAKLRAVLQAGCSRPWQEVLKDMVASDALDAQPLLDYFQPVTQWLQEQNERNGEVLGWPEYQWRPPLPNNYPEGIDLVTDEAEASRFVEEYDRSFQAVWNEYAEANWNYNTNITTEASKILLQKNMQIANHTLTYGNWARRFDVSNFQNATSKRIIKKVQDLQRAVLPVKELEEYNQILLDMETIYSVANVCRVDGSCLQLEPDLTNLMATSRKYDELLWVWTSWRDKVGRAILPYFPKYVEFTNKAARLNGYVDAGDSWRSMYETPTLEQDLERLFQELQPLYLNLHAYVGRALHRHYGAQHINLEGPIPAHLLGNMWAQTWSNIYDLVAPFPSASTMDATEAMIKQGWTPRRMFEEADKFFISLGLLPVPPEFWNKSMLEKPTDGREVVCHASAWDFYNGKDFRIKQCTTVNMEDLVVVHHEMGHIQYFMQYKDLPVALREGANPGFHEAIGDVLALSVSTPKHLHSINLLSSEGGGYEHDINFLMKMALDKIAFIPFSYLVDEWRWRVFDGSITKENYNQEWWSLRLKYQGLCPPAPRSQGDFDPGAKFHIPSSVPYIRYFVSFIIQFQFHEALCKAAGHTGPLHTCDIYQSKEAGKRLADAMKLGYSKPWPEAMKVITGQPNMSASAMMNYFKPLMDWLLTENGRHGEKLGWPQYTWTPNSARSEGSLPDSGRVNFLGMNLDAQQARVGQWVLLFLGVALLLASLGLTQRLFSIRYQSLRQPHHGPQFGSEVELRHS

[3] = biological target: T3, Muscarinic acetylcholine receptor M4 (Homo sapiens, UniProt P08173); assay type: cell membranes, CHO-K1, Membrane; conditions: for Ki: read-out: Ki
T3 sequence (P08173 whole entry): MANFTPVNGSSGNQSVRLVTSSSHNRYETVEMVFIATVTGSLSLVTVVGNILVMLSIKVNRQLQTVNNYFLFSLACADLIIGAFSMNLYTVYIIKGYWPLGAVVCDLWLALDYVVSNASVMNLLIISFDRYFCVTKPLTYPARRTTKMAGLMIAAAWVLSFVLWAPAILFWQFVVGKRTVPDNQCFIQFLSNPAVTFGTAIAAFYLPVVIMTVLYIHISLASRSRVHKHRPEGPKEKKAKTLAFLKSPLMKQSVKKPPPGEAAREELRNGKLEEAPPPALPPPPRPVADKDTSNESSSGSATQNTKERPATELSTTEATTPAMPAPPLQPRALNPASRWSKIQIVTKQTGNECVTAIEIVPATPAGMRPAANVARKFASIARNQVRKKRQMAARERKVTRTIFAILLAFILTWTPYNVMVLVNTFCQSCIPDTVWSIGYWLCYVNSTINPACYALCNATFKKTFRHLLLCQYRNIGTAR

[4] = biological target: T4, Glucocorticoid receptor (Homo sapiens, UniProt P04150); conditions: hela s3
T4 sequence (P04150 whole entry): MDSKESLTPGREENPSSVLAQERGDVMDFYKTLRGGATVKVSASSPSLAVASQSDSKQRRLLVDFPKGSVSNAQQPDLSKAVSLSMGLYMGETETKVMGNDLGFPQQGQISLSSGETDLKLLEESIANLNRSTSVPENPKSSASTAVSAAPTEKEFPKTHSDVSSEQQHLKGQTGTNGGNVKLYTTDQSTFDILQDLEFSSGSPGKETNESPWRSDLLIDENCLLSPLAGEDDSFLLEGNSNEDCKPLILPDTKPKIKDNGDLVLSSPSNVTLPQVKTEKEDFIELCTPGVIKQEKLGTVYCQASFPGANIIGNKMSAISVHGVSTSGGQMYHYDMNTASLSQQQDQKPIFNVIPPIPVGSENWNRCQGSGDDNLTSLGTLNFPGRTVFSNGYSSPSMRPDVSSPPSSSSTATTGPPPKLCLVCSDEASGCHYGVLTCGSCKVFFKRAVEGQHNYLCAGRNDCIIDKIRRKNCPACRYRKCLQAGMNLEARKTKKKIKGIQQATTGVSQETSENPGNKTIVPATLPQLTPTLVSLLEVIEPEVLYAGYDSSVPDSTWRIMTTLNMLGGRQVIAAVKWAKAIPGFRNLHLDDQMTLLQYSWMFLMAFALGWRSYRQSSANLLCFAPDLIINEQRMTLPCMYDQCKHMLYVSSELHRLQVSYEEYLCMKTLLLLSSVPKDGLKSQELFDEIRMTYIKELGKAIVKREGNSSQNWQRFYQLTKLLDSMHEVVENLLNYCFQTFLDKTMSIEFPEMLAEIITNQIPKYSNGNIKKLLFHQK

[5] = biological target: Matrix metalloproteinase-9 (Homo sapiens, UniProt P14780); assay: biochemical; assay type: cell-based;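 also: inhibition of isolated MMP-9 enzyme activity toward a synthetic peptide substrate, from the DrugMatrix protease screening panel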
Also: in other assays of this panel Not Active means under 50% inhibition at 10 µM.

Matrix metalloproteinase-9, sequence (P14780 whole entry): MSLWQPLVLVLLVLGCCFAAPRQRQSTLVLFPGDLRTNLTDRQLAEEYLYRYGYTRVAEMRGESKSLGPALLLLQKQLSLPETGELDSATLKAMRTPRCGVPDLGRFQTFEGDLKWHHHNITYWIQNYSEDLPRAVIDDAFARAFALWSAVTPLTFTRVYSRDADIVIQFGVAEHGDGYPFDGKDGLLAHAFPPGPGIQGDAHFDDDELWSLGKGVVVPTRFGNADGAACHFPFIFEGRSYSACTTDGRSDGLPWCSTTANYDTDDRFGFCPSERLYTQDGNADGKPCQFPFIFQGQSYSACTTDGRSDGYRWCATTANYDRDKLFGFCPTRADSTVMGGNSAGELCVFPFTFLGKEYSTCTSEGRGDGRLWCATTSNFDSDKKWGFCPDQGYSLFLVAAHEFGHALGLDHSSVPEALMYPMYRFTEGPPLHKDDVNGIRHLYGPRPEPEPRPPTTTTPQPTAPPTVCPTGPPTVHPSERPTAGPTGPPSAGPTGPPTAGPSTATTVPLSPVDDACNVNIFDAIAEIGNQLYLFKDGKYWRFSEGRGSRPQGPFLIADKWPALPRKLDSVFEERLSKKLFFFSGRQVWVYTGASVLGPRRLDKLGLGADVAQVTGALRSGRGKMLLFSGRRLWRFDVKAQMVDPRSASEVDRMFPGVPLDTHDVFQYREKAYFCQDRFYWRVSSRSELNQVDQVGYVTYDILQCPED

Compound | IC50 ([1]; chem-1) | IC50 [2] | IC50 ([3]; cho-k1) | IC50 [4] | IC50 [5] | IC50 ([1]; read-out: IC50) | Ki ([1]; read-out: Ki) | IC50 ([3]; read-out: IC50) | Ki [3] | Ki [4]
CC(C)(C)NC(=O)[C@@H]1C[C@@H]2CCCC[C@@H]2CN1C[C@@H](O)[C@H](Cc1ccccc1)NC(=O)[C@H](CC(N)=O)NC(=O)c1ccc2ccccc2n1 | Not Active | Not Active | Not Active | Not Active | Not Active |  |  |  |  | 
CC(=O)[C@@]1(O)CC[C@H]2[C@@H]3C[C@H](C)C4=CC(=O)CC[C@]4(C)[C@H]3CC[C@@]21C | Not Active | Not Active | Not Active |  | Not Active |  |  |  |  | 
N[C@@H](Cc1ccc(N(CCCl)CCCl)cc1)C(=O)O | Not Active | Not Active | Not Active | Not Active | Not Active |  |  |  |  | 
CCCCc1oc2ccccc2c1C(=O)c1cc(I)c(OCCN(CC)CC)c(I)c1 [AMIODARONE] |  | Not Active |  | Not Active | Not Active | 21.8 µM | 11.4 µM | 3.63 µM | 506 nM | 
OCCN(CCO)c1nc(N2CCCCC2)c2nc(N(CCO)CCO)nc(N3CCCCC3)c2n1 [DIPYRIDAMOLE] | Not Active | Not Active | Not Active |  | Not Active |  |  |  |  | 
Cc1oncc1C(=O)Nc1ccc(C(F)(F)F)cc1 [LEFLUNOMIDE] | Not Active | Not Active | Not Active | Not Active | Not Active |  |  |  |  | 
c1ccc([C@H]2CN3CCSC3=N2)cc1 [LEVAMISOLE] | Not Active | Not Active | Not Active |  | Not Active |  |  |  |  | Not Active
N[C@@H](Cc1ccc(O)c(O)c1)C(=O)O [LEVODOPA] | Not Active | Not Active | Not Active | Not Active | Not Active |  |  |  |  | 
N[C@@H](Cc1cc(I)c(Oc2ccc(O)c(I)c2)c(I)c1)C(=O)O [LIOTHYRONINE] | Not Active | Not Active | Not Active | Not Active | Not Active |  |  |  |  | 
O=NN(CCCl)C(=O)NC1CCCCC1 [LOMUSTINE] | Not Active | Not Active | Not Active |  | Not Active |  |  |  |  | 
CCOC(=O)N1CCC(=C2c3ccc(Cl)cc3CCc3cccnc32)CC1 [LORATADINE] | Not Active | Not Active | Not Active | Not Active | Not Active |  |  |  |  | 
Cn1ccnc1S [METHIMAZOLE] | Not Active | Not Active | Not Active |  | Not Active |  |  |  |  | 
CC[C@@H](CO)NC(=O)[C@@H]1C=C2c3cccc4[nH]cc(c34)C[C@H]2N(C)C1 [METHYLERGONOVINE] | Not Active | Not Active | Not Active | Not Active | Not Active |  |  |  |  | 
COc1nc(C)nc(Cl)c1NC1=NCCN1 [MOXONIDINE] | Not Active | Not Active | Not Active | Not Active | Not Active |  |  |  |  | 
COc1c(C)c2c(c(O)c1C/C=C(\C)CCC(=O)O)C(=O)OC2 [MYCOPHENOLIC ACID] | Not Active | Not Active | Not Active |  | Not Active |  |  |  |  | 
O=c1ncn2nc(Sc3ccc(F)cc3F)ccc2c1-c1c(Cl)cccc1Cl [NEFLAMAPIMOD] | Not Active | Not Active | Not Active | Not Active | Not Active |  |  |  |  | 
CO[C@H]1/C=C/O[C@@]2(C)Oc3c(C)c(O)c4c(O)c(c(/C=N/N5CCN(C)CC5)c(O)c4c3C2=O)NC(=O)/C(C)=C\C=C\[C@H](C)[C@H](O)[C@@H](C)[C@@H](O)[C@@H](C)[C@H](OC(C)=O)[C@@H]1C [RIFAMPIN] | Not Active | Not Active | Not Active |  | Not Active |  |  |  |  | 
Cc1noc(NS(=O)(=O)c2ccc(N)cc2)c1C [SULFISOXAZOLE] | Not Active | Not Active | Not Active |  | Not Active |  |  |  |  | 
CSc1ccc(/C=C2/C(C)=C(CC(=O)O)c3cc(F)ccc32)cc1 [SULINDAC SULFIDE] | Not Active | Not Active | Not Active |  | Not Active |  |  |  |  | 
Nc1c2c(nc3ccccc13)CCCC2 [TACRINE] | Not Active | Not Active | Not Active |  | Not Active |  |  |  |  | 
CC(C)N1CCN(c2ccc(OCC3COC(Cn4cncn4)(c4ccc(Cl)cc4Cl)O3)cc2)CC1 (stereo not drawn) [TERCONAZOLE] | Not Active | Not Active |  |  | Not Active |  |  | 13.7 µM | 1910 nM | 
NC[C@H]1CC[C@H](C(=O)O)CC1 [TRANEXAMIC ACID] | Not Active | Not Active | Not Active |  | Not Active |  |  |  |  | 
CC1(C)O[C@@H]2C[C@H]3[C@@H]4CCC5=CC(=O)C=C[C@]5(C)[C@@]4(F)[C@@H](O)C[C@]3(C)[C@]2(C(=O)CO)O1 [TRIAMCINOLONE ACETONIDE] | Not Active | Not Active | Not Active |  | Not Active |  |  |  |  | 
NS(=O)(=O)c1cc2c(cc1Cl)NC(C(Cl)Cl)NS2(=O)=O (stereo not drawn) [TRICHLORMETHIAZIDE] | Not Active | Not Active | Not Active |  | Not Active |  |  |  |  | 
Cc1c(C)c2c(c(C)c1O)CCC(C)(COc1ccc(CC3SC(=O)NC3=O)cc1)O2 (stereo not drawn) [TROGLITAZONE] | Not Active | Not Active | Not Active |  | Not Active |  |  |  |  | 
N#CC(C#N)=Cc1ccc(O)c(O)c1 [TYRPHOSTIN 23] | Not Active | Not Active | Not Active |  | Not Active |  |  |  |  | 
